In the supplement of paper PMC11061612:

Assays:
Assay in all cases: combination Emax (second highest fraction inhibited in the dose matrix, 72 h); higher = more inhibition; extreme values may be limits of the assay
[1] = tested on: CAL-148 (Breast Carcinoma)
Summary of the method: (§1)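 Bliss excess equals the observed combination effect minus the expected value EA + EB − EA·EB, where EA and EB are the effects of each agent alone. Combination Emax is the second-highest inhibition within the matrix. Inhibition was scaled from CellTiter-Glo 2.0 luminescence, with 0 set by vehicle wells and 1 by blank wells, after 72 hours of two-drug dosing of cells plated in 1536-well plates.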

[2] = tested on: Ramos-2G6-4C10 (Burkitt's Lymphoma)
Summary of the method: as §1

[3] = tested on: B-CPAP (Thyroid Gland Carcinoma)
Summary of the method: as §1

[4] = tested on: KELLY (Neuroblastoma)
Summary of the method: as §1

[5] = tested on: COLO-205 (Colorectal Carcinoma)
Summary of the method: as §1

[6] = tested on: KURAMOCHI (Ovarian Carcinoma)
Summary of the method: as §1

[7] = tested on: HCC1806 (Breast Carcinoma)
Summary of the method: as §1

[8] = tested on: SK-ES-1 (Ewing's Sarcoma)
Summary of the method: as §1

[9] = tested on: LNCaP-Clone-FGC (Prostate Carcinoma)
Summary of the method: as §1

[10] = tested on: OVCA420 (Ovarian Carcinoma)
Summary of the method: as §1

[11] = tested on: HOS (Osteosarcoma)
Summary of the method: as §1

[12] = tested on: NB10 (Neuroblastoma)
Summary of the method: as §1

[13] = tested on: LS-180 (Colorectal Carcinoma)
Summary of the method: as §1

[14] = tested on: NOS-1 (Osteosarcoma)
Summary of the method: as §1

[15] = tested on: KYSE-520 (Esophageal Squamous Cell Carcinoma)
Summary of the method: as §1

[16] = tested on: ME-1 (Acute Myeloid Leukemia)
Summary of the method: as §1

[17] = tested on: DoTc2-4510 (Cervical Carcinoma)
Summary of the method: as §1

[18] = tested on: RO82-W-1 (Thyroid Gland Carcinoma)
Summary of the method: as §1

[19] = tested on: LU-135 (Small Cell Lung Carcinoma)
Summary of the method: as §1

[20] = tested on: Calu-3 (Lung Adenocarcinoma)
Summary of the method: as §1

Structure (SMILES) | combination Emax [1] | combination Emax [2] | combination Emax [3] | combination Emax [4] | combination Emax [5] | combination Emax [6] | combination Emax [7] | combination Emax [8] | combination Emax [9] | combination Emax [10] | combination Emax [11] | combination Emax [12] | combination Emax [13] | combination Emax [14] | combination Emax [15] | combination Emax [16] | combination Emax [17] | combination Emax [18] | combination Emax [19] | combination Emax [20]
CC1(C)CCC(CN2CCN(c3ccc(C(=O)NS(=O)(=O)c4ccc(NCC5CCOCC5)c([N+](=O)[O-])c4)c(Oc4cnc5[nH]ccc5c4)c3)CC2)=C(c2ccc(Cl)cc2)C1 [Venetoclax] + C=CCn1c(=O)c2cnc(Nc3ccc(N4CCN(C)CC4)cc3)nc2n1-c1cccc(C(C)(C)O)n1 [AZD1775] (first compound max 1 µM, partner max 1 µM) | 0.952 | 0.984 | 0.502 | 1 | 0.606 | 0.755 | 0.912 | 0.987 | 0.689 | 0.384 | 0.406 | 0.865 | 0.42 | 0.675 | 0.595 | 1 | 0.633 | 0.261 | 0.688 | 0.218
CN(CCO)CC[C@H](CSc1ccccc1)Nc1ccc(S(=O)(=O)NC(=O)c2ccc(N3CCC([C@@H](O)c4ccccc4-c4ccc(Cl)cc4)CC3)cc2)cc1S(=O)(=O)C(F)(F)F [AZD4320] + C[C@@H]1COCCN1C2=NC(=NC(=C2)C3(CC3)[S@](=N)(=O)C)C4=C5C=CNC5=NC=C4 [AZD6738] (first compound max 1 µM, 7x7, partner max 10 µM) | 0.978 | 0.946 | 0.804 | 0.982 | 0.623 | 0.687 | 0.972 | 1 | 0.782 | 0.516 | 0.722 | 0.689 | 0.739 | 0.914 | 0.672 | 1 | 0.912 | 0.785 | 1 | 0.284
COc1cc2ncnc(Nc3ccc(F)c(Cl)c3)c2cc1OCCCN1CCOCC1 [Gefitinib] + CC(C)n1c(=O)n(C)c2cnc3cc(F)c(-c4ccc(OCCCN5CCCCC5)nc4)cc3c21 [AZD1390] (first compound max 10 µM, 7x7, partner max 0.3 µM) | 0.142 | 0.148 | 0.108 | 0.189 | 0.135 | 0.128 | 0.436 | 0.341 | 0.089 | 0.646 | 0.0904 | 0.0716 | 0.292 | 0.714 | 0.556 | 0.199 | 0.297 | 0.164 | 0.129 | 0.738
Cc1cc2ncnn2cc1Nc1ncc2c(n1)n(C1CCOCC1)c(=O)n2C [AZD7648] + C=CCn1c(=O)c2cnc(Nc3ccc(N4CCN(C)CC4)cc3)nc2n1-c1cccc(C(C)(C)O)n1 [AZD1775] (first compound max 10 µM, partner max 1 µM) | 0.928 | 0.998 | 0.479 | 0.993 | 0.678 | 0.664 | 0.894 | 0.946 | 0.775 | 0.418 | 0.369 | 0.594 | 0.5 | 0.432 | 0.4 | 0.355 | 0.531 | 0.46 | 0.56 | 0.242
NC1(C(=O)N[C@@H](CCO)c2ccc(Cl)cc2)CCN(c2ncnc3[nH]ccc23)CC1 [Capivasertib] + CCN(CCO)CCCOc1ccc2c(Nc3cc(CC(=O)Nc4cccc(F)c4)[nH]n3)ncnc2c1 [AZD2811] (first compound max 10 µM, 7x7, partner max 1 µM) | 1 | 0.807 | 0.394 | 0.68 | 0.831 | 0.332 | 0.378 | 0.974 | 0.994 | 0.253 | 0.408 | 0.452 | 0.312 | 0.355 | 0.542 | 0.199 | 0.279 | 0.215 | 0.932 | 0.358
COc1cccc2c1C(=O)c1c(O)c3c(c(O)c1C2=O)C[C@@](O)(C(=O)CO)C[C@@H]3O[C@H]1C[C@H](N)[C@H](O)[C@H](C)O1 [Doxorubicin] + Cc1cc2ncnn2cc1Nc1ncc2c(n1)n(C1CCOCC1)c(=O)n2C [AZD7648] (first compound max 1 µM, 7x7, partner max 10 µM) | 1 | 0.951 | 0.941 | 0.789 | 0.727 | 0.546 | 0.919 | 0.983 | 0.819 | 0.224 | 0.972 | 0.863 | 0.736 | 0.369 | 0.295 | 0.355 | 0.844 | 0.628 | 0.817 | 0.301
CC1(C)CCC(CN2CCN(c3ccc(C(=O)NS(=O)(=O)c4ccc(NCC5CCOCC5)c([N+](=O)[O-])c4)c(Oc4cnc5[nH]ccc5c4)c3)CC2)=C(c2ccc(Cl)cc2)C1 [Venetoclax] + Cn1cnc2c(F)c(Nc3ccc(Br)cc3Cl)c(C(=O)NOCCO)cc21 [Selumetinib] (first compound max 1 µM, 7x7, partner max 3 µM) | 0.248 | 0.035 | 0.241 | 1 | 0.718 | 0.502 | 0.359 | 0.285 | 0.187 | 0.403 | 0.089 | 0.381 | 0.476 | 0.227 | 0.299 | 1 | 0.268 | 0.116 | 0.332 | 0.071
CC1(C)CCC(CN2CCN(c3ccc(C(=O)NS(=O)(=O)c4ccc(NCC5CCOCC5)c([N+](=O)[O-])c4)c(Oc4cnc5[nH]ccc5c4)c3)CC2)=C(c2ccc(Cl)cc2)C1 [Venetoclax] + CN(C)CCCOc1ccc(-c2ccc3ncc4c(c3c2)n(C2CCOCC2)c(=O)n4C)cn1 [AZD0156] (first compound max 1 µM, 7x7, partner max 1 µM) | 0.716 | 0.627 | 0.28 | 0.976 | 0.237 | 0.567 | 0.139 | 0.374 | 0.35 | 0.178 | 0.152 | 0.538 | 0.166 | 0.194 | 0.181 | 1 | 0.268 | 0.126 | 0.274 | 0.121
CC1(C)CCC(CN2CCN(c3ccc(C(=O)NS(=O)(=O)c4ccc(NCC5CCOCC5)c([N+](=O)[O-])c4)c(Oc4cnc5[nH]ccc5c4)c3)CC2)=C(c2ccc(Cl)cc2)C1 [Venetoclax] + C[C@@H](Nc1cc(F)cc(F)c1)c1cc(C(=O)N(C)C)cc2c(=O)cc(N3CCOCC3)oc12 [AZD8186] (first compound max 1 µM, 7x7, partner max 3 µM) | 0.263 | 0.221 | 0.132 | 1 | 0.285 | 0.306 | 0.0952 | 0.64 | 0.809 | 0.165 | 0.0842 | 0.24 | 0.184 | 0.462 | 0.247 | 1 | 0.197 | 0.217 | 0.484 | 0.0911
COc1cccc(OCCCN)c1-c1cc(Nc2cnc(C#N)cn2)n[nH]1 [Prexasertib] + C[C@@H]1COCCN1C2=NC(=NC(=C2)C3(CC3)[S@](=N)(=O)C)C4=C5C=CNC5=NC=C4 [AZD6738] (first compound max 1 µM, 7x7, partner max 10 µM) | 0.895 | 1 | 0.742 | 1 | 0.565 | 0.647 | 0.988 | 0.944 | 0.842 | 0.692 | 0.902 | 0.863 | 0.819 | 0.381 | 0.728 | 0.633 | 0.88 | 0.441 | 0.634 | 0.405
Cc1c2c(nn1C)CSCc1cc(n(C)n1)CSc1cc(c3ccccc3c1)OCCCc1c(C(=O)O)n(C)c3c-2c(Cl)ccc13 [AZD5991] + Cc1cc2ncnn2cc1Nc1ncc2c(n1)n(C1CCOCC1)c(=O)n2C [AZD7648] (first compound max 1 µM, 7x7, partner max 10 µM) | 0.45 | 1 | 0.365 | 0.768 | 0.298 | 0.331 | 0.515 | 0.813 | 0.42 | 0.201 | 0.287 | 0.258 | 0.256 | 0.895 | 0.365 | 0.755 | 0.244 | 0.376 | 0.279 | 0.201
C[C@@H](c1ccc2nccn2c1)n1nnc2ncc(-c3cnn(C)c3)nc21 [Savolitinib] + CC1(C)CCC(CN2CCN(c3ccc(C(=O)NS(=O)(=O)c4ccc(NCC5CCOCC5)c([N+](=O)[O-])c4)c(Oc4cnc5[nH]ccc5c4)c3)CC2)=C(c2ccc(Cl)cc2)C1 [Venetoclax] (first compound max 1 µM, 7x7, partner max 1 µM) | 0.143 | 0.169 | 0.155 | 0.357 | 0.0209 | 0.15 | 0.142 | 0.197 | 0.0523 | 0.0542 | 0.205 | 0.149 | 0.205 | 0.0631 | 0.149 | 1 | 0.182 | 0.169 | 0.114 | 0.153
